Measurements from patent US20120071475A1, “UREA DERIVATIVES HAVING PI3K-INHIBITING ACTIVITY” (SHIONOGI & CO., LTD., priority 2009, published 2012).
Read-outs that look alike come from different tables or passages of the source.

Tests used:
CYP3A4 = molecular target: T1, CYP3A4 (Homo sapiens, UniProt P08684); assay: CYP3A4 fluorescence MBI test; type: in vitro ADME; conditions: difference in IC50 with 0 or 30 minutes pre-reaction; CYP3A4 expressed in E. coli, substrate 7-BFC
T1 construct: host or cells: E. coli
T1 sequence (P08684 whole entry): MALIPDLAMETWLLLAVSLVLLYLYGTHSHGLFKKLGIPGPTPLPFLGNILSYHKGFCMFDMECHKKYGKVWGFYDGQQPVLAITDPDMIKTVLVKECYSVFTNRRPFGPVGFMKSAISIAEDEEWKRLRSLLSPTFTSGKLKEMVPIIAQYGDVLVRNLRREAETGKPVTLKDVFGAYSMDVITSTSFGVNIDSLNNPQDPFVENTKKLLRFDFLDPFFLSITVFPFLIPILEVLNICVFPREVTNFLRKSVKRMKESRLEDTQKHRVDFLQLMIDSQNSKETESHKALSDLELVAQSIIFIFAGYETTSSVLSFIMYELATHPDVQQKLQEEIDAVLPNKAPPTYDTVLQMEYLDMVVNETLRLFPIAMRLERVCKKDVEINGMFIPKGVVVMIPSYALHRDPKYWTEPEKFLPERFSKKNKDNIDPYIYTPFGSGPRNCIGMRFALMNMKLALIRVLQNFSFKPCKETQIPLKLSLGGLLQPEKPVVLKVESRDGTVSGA
Outline: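 E. coli-expressed CYP3A4 debenzylating 5.6 μmol/L 7-BFC to fluorescent 7-HFC (Ex 420/Em 535 nm) in K-Pi pH 7.4 at 25° C, 15 min reaction. NADPH pre-incubation of 0 or 30 min, with 10-fold dilution before reaction. IC50 from 0.625–20 μmol/L (6 points); (+) for an IC50 shift ≥5 μmol/L, (−) for ≤3 μmol/L.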

PI3Kγ [1] = molecular target: T2, PI3Kγ (Homo sapiens, UniProt P48736); assay: PI3Kγ inhibitory activity (PI3-kinase HTRF assay, inhibition ratio); type: biochemical; conditions: 0.5 h, compound at 10 μmol/L; read-out: PI3Kg Inhibition Ratio % (10 μM)
T2 sequence (P48736 whole entry, species assumed): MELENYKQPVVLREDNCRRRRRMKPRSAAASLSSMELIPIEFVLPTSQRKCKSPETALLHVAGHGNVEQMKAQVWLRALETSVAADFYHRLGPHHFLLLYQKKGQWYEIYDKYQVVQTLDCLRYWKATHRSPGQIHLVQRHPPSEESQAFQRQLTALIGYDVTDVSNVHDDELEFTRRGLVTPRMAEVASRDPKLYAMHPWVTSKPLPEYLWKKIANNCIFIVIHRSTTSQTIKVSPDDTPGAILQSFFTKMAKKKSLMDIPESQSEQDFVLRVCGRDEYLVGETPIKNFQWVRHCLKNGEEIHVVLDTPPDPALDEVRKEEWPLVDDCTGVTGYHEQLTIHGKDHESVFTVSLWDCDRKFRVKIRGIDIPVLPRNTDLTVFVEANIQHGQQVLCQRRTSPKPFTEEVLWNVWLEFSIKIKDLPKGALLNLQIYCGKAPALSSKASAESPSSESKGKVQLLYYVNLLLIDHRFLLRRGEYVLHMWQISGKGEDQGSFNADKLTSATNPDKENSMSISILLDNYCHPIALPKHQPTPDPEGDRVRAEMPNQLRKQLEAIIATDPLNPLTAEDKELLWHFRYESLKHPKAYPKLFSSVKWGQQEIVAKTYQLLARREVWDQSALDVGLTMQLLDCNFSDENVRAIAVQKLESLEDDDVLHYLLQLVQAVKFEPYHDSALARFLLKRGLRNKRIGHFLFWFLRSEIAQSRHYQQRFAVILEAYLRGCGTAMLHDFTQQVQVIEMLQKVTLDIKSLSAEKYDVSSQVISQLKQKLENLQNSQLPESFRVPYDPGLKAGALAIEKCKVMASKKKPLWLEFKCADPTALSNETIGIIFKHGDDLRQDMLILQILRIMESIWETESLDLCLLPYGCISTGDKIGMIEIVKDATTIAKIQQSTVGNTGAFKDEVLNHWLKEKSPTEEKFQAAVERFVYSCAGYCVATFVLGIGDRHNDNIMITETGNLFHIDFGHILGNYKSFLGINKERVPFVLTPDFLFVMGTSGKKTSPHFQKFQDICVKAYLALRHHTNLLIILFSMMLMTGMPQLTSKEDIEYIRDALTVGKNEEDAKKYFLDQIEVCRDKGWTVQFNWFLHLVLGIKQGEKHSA
Outline: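 Compound at 10 μmol/L preincubated 10 min with PI3Kγ and PIP2 substrate, then reacted with ATP for 30 minutes at room temperature; the compound, substrate and ATP figures as printed (40 μmol/L each) are solution concentrations. HTRF 665/620 nm ratio read after 18 hours. Inhibition ratio calculated against no-compound (100%) and no-enzyme (0%) controls.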

[2] = system: CYP1A2, CYP2C9, CYP2C19, CYP2D6 and CYP3A4 (one value for the five species); assay: CYP inhibition test, five CYP species together (5CYPs_IC50; pooled human liver microsome); type: in vitro ADME
From the text: O-de-ethylation of 7-ethoxyresorufin (CYP1A2), methyl-hydroxylation of tolbutamide (CYP2C9), 4′-hydroxylation of mephenyloin (CYP2C19), O-demethylation of dextromethorphan (CYP2D6), and hydroxylation of terfenadine (CYP3A4), which are typical substrate for metabolic reactions of human main CYP5 molecular species (CYP1A2, 2C9, 2C19, 2D6, and 3A4), were adopted as indexes.
The reaction conditions are as follows: substrate: 0.5 μmol/L of ethoxyresorufin (CYP1A2), 100 μmol/L of tolbutamide (CYP2C9), 50 μmol/L of S-mephenyloin (CYP2C19), 5 μmol/L of dextromethorphan (CYP2D6), and 1 μmol/L of terfenadine (CYP3A4); reaction time; 15 minutes; reaction temperature: 37° C.; enzyme: pooled human liver microsome 0.2 mg protein/mL; test drug concentration: 1, 5, 10, and 20 μmol/L (4 points).
In a 96-well plate, as a reaction solution, five kinds of substrates, a human liver microsome, and a test drug were added to 50 mmol/L Hepes buffer solution in the aforementioned ratio. A coenzyme NADPH was added to start a metabolic reaction, which is an index. After reacting at 37° C. for 15 minutes, a solution of methanol/acetonitrile (1/1 (v/v)) was added to quench the reaction. After centrifugation at 3000 rpm for 15 minutes, resorufin (CYP1A2 metabolite) in the supernatant was quantitated with a fluorescence multilabel counter, and hydroxylated tolbutamide (CYP2C9 metabolite), 4′-hydroxylated mephenyloin (CYP2C19 metabolite), […], terfenadine in alcohol form (CYP3A4 metabolite) were quantitated with LC/MS/MS.
The case wherein only DMSO (a solvent which dissolved a drug) was added to a reaction system was defined as a control (100%). When a test drug solution was added, the remaining activity (%) at each concentration was calculated, and then IC50 was calculated with a concentration and an inhibition ratio by an inverse estimation using a logistic model.

[3] = Metabolic stability test (pooled human liver microsome); type: in vitro ADME; conditions: percentage of test compound remained after 30 minutes, pooled human liver microsome 0.5 mg protein/mL, 1 mmol/L NADPH, 37° C., compound 0.5 μM
Outline: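 Pooled human liver microsomes (0.5 mg protein/mL) incubated with compound and 1 mmol/L NADPH at 37° C. in pH 7.4 Tris buffer for 0 or 30 min. Parent quantified by LC/MS/MS after methanol/acetonitrile quench; value is % remaining at 30 min versus 0 min.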

hERG channel (IKr) = molecular target: T3, hERG channel (IKr) (Homo sapiens, UniProt Q12809); assay: hERG test (whole-cell patch-clamp, IKr in HEK293 cells); type: cell-based; conditions: human, HEK293 cells expressing hERG channel, pH 7.4, inhibition of maximum tail current (IKr), compound 1 μM
T3 construct: expressed in transfected cells; host or cells: HEK293
T3 sequence (Q12809 whole entry): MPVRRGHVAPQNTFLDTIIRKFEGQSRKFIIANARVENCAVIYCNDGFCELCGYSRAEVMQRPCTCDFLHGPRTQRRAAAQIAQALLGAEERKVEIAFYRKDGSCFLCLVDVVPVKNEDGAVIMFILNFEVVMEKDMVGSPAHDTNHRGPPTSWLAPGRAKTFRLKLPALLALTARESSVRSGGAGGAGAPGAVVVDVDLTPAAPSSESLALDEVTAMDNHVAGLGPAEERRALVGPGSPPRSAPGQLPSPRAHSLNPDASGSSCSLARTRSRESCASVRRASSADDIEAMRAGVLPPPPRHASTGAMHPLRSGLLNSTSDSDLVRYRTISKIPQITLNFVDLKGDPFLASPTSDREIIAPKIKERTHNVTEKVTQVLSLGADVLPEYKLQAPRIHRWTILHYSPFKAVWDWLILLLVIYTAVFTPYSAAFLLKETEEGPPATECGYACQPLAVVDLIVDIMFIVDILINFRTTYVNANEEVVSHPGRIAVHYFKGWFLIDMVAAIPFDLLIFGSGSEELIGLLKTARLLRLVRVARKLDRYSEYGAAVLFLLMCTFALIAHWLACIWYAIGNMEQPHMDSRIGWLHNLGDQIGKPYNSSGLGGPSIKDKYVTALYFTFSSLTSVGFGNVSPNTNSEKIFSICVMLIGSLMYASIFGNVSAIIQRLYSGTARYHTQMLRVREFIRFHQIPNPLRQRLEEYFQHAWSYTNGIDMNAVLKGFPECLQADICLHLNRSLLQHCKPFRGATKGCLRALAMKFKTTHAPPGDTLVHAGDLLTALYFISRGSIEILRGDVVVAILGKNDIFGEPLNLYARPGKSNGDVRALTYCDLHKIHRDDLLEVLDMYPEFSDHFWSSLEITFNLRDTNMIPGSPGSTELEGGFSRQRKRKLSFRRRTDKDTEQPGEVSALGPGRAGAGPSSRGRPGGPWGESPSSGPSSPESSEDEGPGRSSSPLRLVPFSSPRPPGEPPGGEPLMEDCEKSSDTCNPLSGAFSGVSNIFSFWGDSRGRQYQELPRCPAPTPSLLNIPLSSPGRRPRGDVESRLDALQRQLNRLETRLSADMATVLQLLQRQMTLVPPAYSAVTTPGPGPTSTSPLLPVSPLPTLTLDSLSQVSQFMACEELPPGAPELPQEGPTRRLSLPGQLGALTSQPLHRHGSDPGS
From the text: For the purpose of risk evaluation of QT interval extension of electrocardiogram, the activity on delayed rectification K^+ current (IKr), which plays an important role in a cardiac ventricle repolarization process, was examined using the HEK293 cell that was made to express human ether-a-go-go related gene (hERG) channel.
Using an automatic patch-clamp system (PatchXpress 7000A, Axon Instruments Inc.), by a whole-cell patch-clamp method, after the cell was maintained at a membrane potential of −80 mV, IKr induced upon applying depolarizing stimulation of +50 mV for 2 seconds and further applying repolarizing stimulation of −50 mV for 2 seconds was recorded. After generated electric current became stable, a test substance dissolved at an intended concentration in extracellular fluid (137 mmol/L NaCl, 4 mmol/L KCl, 1.8 mmol/L CaCl2.2H2O, 1 mmol/L MgCl2.6H2O, 10 mmol/L glucose, 10 mmol/L HEPES (4-(2-hydroxyethyl)-1-piperazineethanesulfonic acid), pH=7.4) was applied to the cell for 10 minutes under room temperature condition. From the obtained IKr, the absolute value of the maximum tail current was measured using analysis software (DataXpress ver. 1, Molecular Devices Corporation) and the value of the electric current in a maintained membrane potential as baseline. Moreover, an inhibition ratio for the maximum tail current prior to the application of the test substance was calculated and then compared with a group of media-application (0.1% dimethylsulfoxide solution) to evaluate influence of the test substance on IKr.

AKT phosphorylation = AKT phosphorylation inhibitory activity in MCP-1 stimulated THP-1 cells (sandwich ELISA); type: cell-based, Human; conditions: Homo sapiens, compound at 1 μmol/L, MCP-1 stimulation, read-out: AKT phosphorylation inhibition ratio
Experimental: (1) The AKT phosphorylation inhibitory activity of a compound was evaluated according to the following procedure. (2) Human monocyte-like cell line THP-1 was washed with RPMI-1640 media, incubated in the presence of 5% CO2 at 37° C. for 3 hours, washed with Hank's balanced salt solution (HBSS), adjusted to a cell concentration of 6.7×10^6/mL, and then used in an experiment. (3) 30 μL of the cell suspension and 60 μL of each compound solution containing 0.2% DMSO/HBSS were mixed and then preincubated at 37° C. for 5 minutes. 30 μL of HBSS containing 1.2 μg/mL of MCP-1 was added thereto and then incubated for 60 seconds at 37° C. (4) 30 μL of a cell lysate (the final concentrations: 20 mmol/L Tris-HCl (pH 7.5), 150 mmol/L NaCl, 1 mmol/L EDTA, 1 mmol/L EDTA, 1% Triton X-100, 2.5 mmol/L sodium pyrophosphate, 1 mmol/L β-glycerophosphate, 1 mmol/L Na3VO4, 1 μg/ml leupeptin, 50 nmol/L APMSF) was added thereto to lyse cells. (5) The amount of AKT phosphorylation in the cell solution was measured by sandwich ELISA method using anti-Phospho-Akt (Ser473) antibody and anti-AKT1 antibody. (6) Anti-Phospho-Akt (Ser473) antibodies or anti-AKT1 antibodies were immobilized onto the solid phase of a micro well plate. The prepared cell lysate was added to the micro well plate, incubated, and then washed with ELISA wash solution. (7) An anti-AKT1 antibody or anti-Phospho-Akt (Ser473) antibody, which forms a counterpart to an antibody immobilized on the solid phase, was added thereto, incubated, washed similarly, and then reacted with an HRP-labeled anti-mouse IgG antibody. (8) After incubating for 30 minutes and then washing similarly, 100 μL of TMB (3,3′,5,5″-tetramethylbenzidine) was added thereto, followed by reacting for 30 minutes. (9) 100 μL of stop solution was added to quench the color reaction, and then the absorbance at 450 nm was measured. (10) The amount of AKT phosphorylation in a sample in the absence of a compound was defined as 100% activity, and the amount of AKT phosphorylation in a sample in the absence of MCP-1 was defined as 0% activity to calculate an inhibition ratio of each compound. The measurement was performed for a 1 μmol/L solution of each compound.

PI3Kγ [4] = molecular target: T2, PI3Kγ; assay: PI3Kγ inhibitory activity (Ki value); type: biochemical; conditions: read-out: PI3Kγ Ki value
Experimental: The PI3Kγ inhibitory activity (Ki value) of a compound was evaluated according to the following procedure:
5 μL of a compound solution containing 10% DMSO and […] of a compound was changed to 5 μL of a compound solution containing 10% DMSO and either 200, 64, 20, 6.4, 2, 0.64, or 0.20 μmol/L of the compound (optionally, this is diluted to a lower concentration). Using a method similar to the method for measuring PI3Kγ inhibitory activity, inhibition ratios of PI3Kγ were measured in the presence of the compound at 50, 16, 5, 1.6, 0.5, 0.16, and 0.05 μmol/L (optionally, a lower concentration). Then an IC50 value was calculated by a logistic approximation method or the linear regression method using two concentrations that cross 50% inhibition. Separately, the ATP concentration in the reaction solution (40 μmol/L ATP, 10 mmol/L MgCl2, 5 mmol/L DTT) at the time of the start of a reaction in the absence of the compound was changed to 80, 40, 20, 10, 5, 2.5, 1.25, or 0.625 μmol/L. Then, HTRF ratios were measured by a similar method. The value obtained by subtracting the HTRF ratio at each ATP concentration from the HTRF ratio in the absence of PI-3 kinase y was defined as the value obtained by multiplying reaction rate (v) at each ATP concentration with a constant. The Michaelis-Menten constant Km was then calculated by the Lineweaver-Burk plot method. The Ki value of a compound was calculated by the following formula wherein “μM” denotes “μmol/L.”
Ki value ═IC50 value/(1+test ATP concentration (μM)/Km (μM))

Row | Compound | MBI (CYP3A4) | inhibition at 10 µM (PI3Kγ [1]) [%] | IC50 at 15 min ([2]; human, microsomes) [µM] | also measured
1 | COc1cc(N2CCc3nc(NC(=O)Nc4ccccc4C(=O)O)sc3C2)nc(OC)n1.Cl.Cl [Compound I-5] | (−) (When 3 μmol/L or less, the compound is shown as (−)) | 85 | – | IC50 at 15 min ([2]; pooled human liver microsomes, one value for five species (CYP1A2, 2C9, 2C19, 2D6, 3A4), pooled human liver microsome 0.2 mg protein/mL, 15 minutes, 37° C., test drug 1-20 μmol/L, read-out: 5CYPs_IC50): ≥ 10 µM
2 | COc1cc(N2CCc3nc(NC(=O)Nc4ccccc4C(C)=O)sc3C2)nc(OC)n1 [Compound I-9] | (−) (When 3 μmol/L or less, the compound is shown as (−)) | 93 | ≥ 10 | –
3 | COc1ccc(N2CCc3nc(NC(=O)Nc4ccccc4C(=O)NC(C)C)sc3C2)cn1 [Compound I-50] | – | – | ≥ 10 | –
4 | COc1cc(N2CCc3nc(NC(=O)Nc4ccccc4C(=O)C(C)C)sc3C2)nc(OC)n1 [Compound I-64] | – | – | ≥ 10 | –
5 | COc1cncc(C2CCc3nc(NC(=O)Nc4ccccc4C(=O)NC(C)C)sc3C2)c1 (stereo not drawn) [Compound I-81] | (−) (When 3 μmol/L or less, the compound is shown as (−)) | – | > 20 | –
6 | COCCNC(=O)c1ccccc1NC(=O)Nc1nc2c(s1)CN(c1cc(OC)nc(OC)n1)CC2 [Compound I-86] | (−) (When 3 μmol/L or less, the compound is shown as (−)) | ≥ 95 | ≥ 10 | –
7 | COc1cc(N2CCc3nc(NC(=O)Nc4ccc(F)cc4C(=O)NC(C)C)sc3C2)cnc1OC [Compound I-105] | – | – | ≥ 10 | –
8 | COc1cc(N2CCc3nc(NC(=O)Nc4cn(C)nc4C(=O)NC(C)C)sc3C2)nc(OC)n1 [Compound I-106] | – | – | ≥ 10 | hLMS_ox(at 0.5 μM) % [3]: 83.9%
9 | CC(C)NC(=O)c1ccccc1NC(=O)Nc1nc2c(s1)CN(c1cncc(S(=O)(=O)N(C)C)c1)CC2 [Compound I-108] | (−) (When 3 μmol/L or less, the compound is shown as (−)) | – | > 20 | –
10 | CC(CO)NC(=O)c1ccccc1NC(=O)Nc1nc2c(s1)CN(c1cccc(F)c1)CC2 (stereo not drawn) [Compound I-115] | – | ≥ 95 | ≥ 10 | hLMS_ox(at 0.5 μM) % [3]: 84.7%
11 | COc1cc(N2CCc3nc(NC(=O)Nc4ccccc4C(O)CCC(C)C)sc3C2)nc(OC)n1 (stereo not drawn) [Compound I-117] | – | – | > 20 | –
12 | CNS(=O)(=O)c1cncc(N2CCc3nc(NC(=O)Nc4ccccc4C(=O)NC(C)C)sc3C2)c1 [Compound I-129] | (−) (When 3 μmol/L or less, the compound is shown as (−)) | ≥ 95 | – | inhibition at 10 min, 1 µM (hERG channel (IKr)): 5.5%; inhibition at 1 µM (AKT phosphorylation): ≥ 95%
13 | Cc1nc(NC(=O)Nc2ccccc2C(=O)NC(C)C)sc1-c1csc(S(=O)(=O)N2CCC(O)CC2)c1 [Compound I-146] | – | 77 | – | Ki (PI3Kγ [4]): 0.047 µM; inhibition at 1 µM (AKT phosphorylation): ≥ 95%
14 | O=C(Nc1nc2c(s1)CN(c1cncc(C(F)(F)F)c1)CC2)Nc1ccccc1C(=O)NC(CO)CO [Compound I-173] | (−) (When 3 μmol/L or less, the compound is shown as (−)) | 71 | ≥ 10 | –
15 | CC(C)NC(=O)c1ccccc1NC(=O)Nc1nc2c(s1)CN(c1ccc(C(F)(F)F)cc1)CC2 [Compound I-208] | – | – | > 20 | –
16 | CC(=O)c1cccc(-c2ccc3nc(NC(=O)Nc4ccccc4OCCC(C)C)sc3n2)c1 [Compound I-219] | – | ≥ 95 | ≥ 10 | –
17 | CC(=O)c1cccc(-c2ccc3nc(NC(=O)Nc4ccccc4N4CCCC4=O)nn3c2)c1 [Compound I-224] | – | – | ≥ 10 | –
